Laboratory results: ChEMBL document CHEMBL1770077, “Synthesis, modelling and kinetic assays of potent inhibitors of purple acid phosphatase” (Bioorg Med Chem Lett, 2011)

Legend:
[1] = biological target: T1, Fe(3+)-Zn(2+) purple acid phosphatase (Phaseolus vulgaris, UniProt P80366); test: Competitive inhibition of red kidney bean PAP using para-nitrophenol as substrate at pH 4.9 preincubated for 10 mins by UV-visible spectrophotometry
T1 sequence (P80366 whole entry): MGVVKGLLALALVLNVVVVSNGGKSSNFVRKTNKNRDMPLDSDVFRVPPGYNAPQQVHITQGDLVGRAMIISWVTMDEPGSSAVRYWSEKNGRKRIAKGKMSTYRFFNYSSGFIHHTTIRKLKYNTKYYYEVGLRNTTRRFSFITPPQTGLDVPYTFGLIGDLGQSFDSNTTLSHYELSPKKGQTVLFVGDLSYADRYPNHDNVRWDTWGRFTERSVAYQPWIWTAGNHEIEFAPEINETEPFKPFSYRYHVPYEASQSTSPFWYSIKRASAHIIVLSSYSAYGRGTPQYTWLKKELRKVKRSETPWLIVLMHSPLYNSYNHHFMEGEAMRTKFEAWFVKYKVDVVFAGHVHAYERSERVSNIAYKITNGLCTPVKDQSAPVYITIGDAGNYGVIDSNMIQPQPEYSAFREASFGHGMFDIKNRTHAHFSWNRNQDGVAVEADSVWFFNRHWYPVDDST

[2] = Competitive inhibition of pig PAP using para-nitrophenol as substrate at pH 4.9 preincubated for 10 mins by UV-visible spectrophotometry; set-up: species or system Sus scrofa
[3] = biological target: T1, Fe(3+)-Zn(2+) purple acid phosphatase; test: Uncompetitive inhibition of red kidney bean PAP using para-nitrophenol as substrate at pH 4.9 preincubated for 10 mins by UV-visible spectrophotometry
[4] = Uncompetitive inhibition of pig PAP using para-nitrophenol as substrate at pH 4.9 preincubated for 10 mins by UV-visible spectrophotometry; set-up: species or system Sus scrofa

Row | Structure (SMILES) | Ki [1] [µM] | Ki [2] [µM] | Ki [3] [µM] | Ki [4] [µM]
1 | CCCC(=O)NC(c1cccc2ccccc12)P(=O)(O)O (racemic) | 238 | 363 | 654 | 1440
2 | CCCCCCC(=O)NC(c1cccc2ccccc12)P(=O)(O)O (racemic) | 222 | 116 | 446 | 349
3 | CCCCCCCC(=O)NC(c1cccc2ccccc12)P(=O)(O)O (racemic) | 195 | 44 | 443 | 
4 | CCCCCCCCCC(=O)NC(c1cccc2ccccc12)P(=O)(O)O (racemic) | 57 | 10 | 102 | 

Results, then the compound that gave them:

Row | Ki [1] [µM] | Ki [2] [µM] | Ki [3] [µM] | Ki [4] [µM] | Structure (SMILES)
5 | 5 | 21 |  |  | CCCCCCCCCCCC(=O)NC(c1cccc2ccccc12)P(=O)(O)O (racemic)
6 | 11 | 8 |  |  | CCCCCCCCCCCCCC(=O)NC(c1cccc2ccccc12)P(=O)(O)O (racemic)
7 | 31 | 13 |  |  | CCCCCCCCCCCCCCCC(=O)NC(c1cccc2ccccc12)P(=O)(O)O (racemic)
